Assay results published in US9408859B2, “Pharmaceutical compositions useful for preventing and treating cancer” (Mitotech SA, priority 2007, dated 2016).
Peptide text beside a SMILES is read from it. * marks the point of attachment. Cbz = O=C(OCc1ccccc1)*; CH2F = FC*

Key:
[1] = test system: human rhabdomyosarcoma cell line (RD); assay: RD cell morphology, attachment and multinuclear cells; assay type: cell-based; conditions: 20 nM, pretreatment for 24 hours
Description: In the following experiment, a human rhabdomyosarcoma cell line (RD) purchased from the ATCC (#CCL-136) was used. These cells were isolated from a […] 7 years ago and are widely accepted as a model for studies of rhabdomyosarcoma in vitro and in vivo.
The cells were grown in Dulbecco's modified Eagle's medium (DMEM, Gibco®, Invitrogen, Carlsbad, Calif.) supplemented with 10% FBS. The cells were treated with 20 nM SkQ (SkQ1, SkQR1, SkQB1, or SkQBP1), or with a non-targeted antioxidant (1 mM NAC, or 100 μM Trolox) 24 to 72 hours before evaluation. In some experiments 1 μM of the protonophorous uncoupler FCCP was added 1 hour before the addition of SkQ1 to depolarize the mitochondrial membrane, and thus to prevent the electrophoretic accumulation of SkQ in the mitochondrial interior. The cells were then stained with rabbit polyclonal antibodies against actin (1:1000) (Sigma-Aldrich Corp., Baleras, Russia) and monoclonal antibody DM1A against tubulin (1:1000) (Sigma-Aldrich Corp.), and their morphology examined using an Axiovert fluorescent microscope equipped with objectives 20× (dry) and 100× (oil immersion Neofluar) (Carl Zeiss, Germany).

[2] = test system: tumor xenografts (tumors of epithelial cancers); conditions: as stated in WO2006005759, cited from earlier work
[3] = test system: human rhabdomyosarcoma cell line (RD); assay: Apoptosis in RD cells (Hoechst staining, propidium iodide flow cytometry); assay type: cell-based; conditions: for Induction of apoptosis: 1 mM NAC or 100 mM Trolox for 24 hours
Description: To determine the viability of the cells, chromatine condensation and fragmentation was analyzed in similarly-treated cells (20 nM SkQ or 1 mM NAC or 100 mM Trolox for 24 hours and 1 μm FCCP one hour before SkQ1 where indicated) after staining with Hoechst 3342 (GenScript, Cat. No. L00309, performed according to manufacture manual http://www.genscript.com/tech_guide/TM0361.pdf). The cells were then examined using an Axiovert fluorescent microscope equipped with objectives 20× (dry) and 100× (oil immersion Neofluar) (Carl Zeiss).
Further evidence of apoptosis was obtained by analysis of DNA content in the cellular population using flow cytometry. Cells were incubated with 0.05% ethanol was added (control) or with 20 nM SkQ1 for 24 hours, and then fixed and stained with propidium iodide (5 μM). They were then analyzed by flow cytometry using a FC-500 FACS (Beckman Coulter, Inc., Brea, Calif.).

Lung Lewis's carcinoma = assay: SkQ1 combined with doxorubicin on growth of lung Lewis's carcinoma; assay type: in vivo, mouse; conditions: regime per group
Description: For development of oncological diseases joint therapy that combines SkQ1 and chemotherapy, a study on SkQ1 influence on single doxorubicin injection efficiency was performed (one of the mechanisms of the preparation is activation of oxidative processes in normal and cancerous cells). SkQ1 was introduced before, simultaneously, or after introduction of doxorubicin in maximum dose of 500 nM/kg (in order to block oxidative mechanism of doxorubicin influence).
Doxorubicin was applied before, after, and during the course of SkQ1.

## COc1ccc2c(CC(=O)OCCCCCCCC3=CC(=O)C(C)=C(C)C3=O)c3[n+](cc2c1OC)CCc1cc2c(cc1-3)OCO2 [SkQB1]
[1]
  Cell morphology: induced the formation of elongated cells

## COc1cc2c(cc1OC)-c1c(CC(=O)OCCCCCCCC3=CC(=O)C(C)=C(C)C3=O)c3ccc(OC)c(OC)c3c[n+]1CC2 [SkQBP1]
[1]
  Cell morphology: induced the formation of elongated cells

## COC1=C(OC)C(=O)C(CCCCCCCCCC[P+](c2ccccc2)(c2ccccc2)c2ccccc2)=C(C)C1=O [MitoQ]
[2]
  necrosis: increased necrosis
  vascularization of the tumor xenografts: decreased vascularization
[2]; no experimental data shown
  tumor size: tumor size reduction

## N#CC(C#N)=NNc1ccc(OC(F)(F)F)cc1 [FCCP]
[3]; 1 μm FCCP one hour before SkQ1
  Effect on pro-apoptotic action of SkQs: prevented their pro-apoptotic action

## COC(=O)C[C@H](NC(=O)[C@H](C)NC(=O)[C@@H](NC(=O)OCc1ccccc1)C(C)C)C(=O)CF [zVADfmk] (Cbz-Val-Ala-Asp(OMe)-CH2F)
[3]; pan-caspase inhibitor
  Effect on cell death caused by SkQs: Cell death was prevented

## CC(=O)N[C@@H](CS)C(=O)O [NAC]
[3]
  Induction of apoptosis: induced apoptosis in RD cells but only at much higher concentrations

## COc1cccc2c1C(=O)c1c(O)c3c(c(O)c1C2=O)C[C@@](O)(C(=O)CO)C[C@@H]3O[C@H]1C[C@H](N)[C@H](O)[C@H](C)O1 [DOX, doxorubicin, reference compound]
Lung Lewis's carcinoma; Day 10
  TGS %, by tumor volume: 26%
Lung Lewis's carcinoma; Day 14
  TGS %, by tumor volume: 38%
Lung Lewis's carcinoma; Day 14, listed as doxorubicin
  TGS %, by tumor volume: 36%
Lung Lewis's carcinoma; Day 17
  TGS %, by tumor volume: 35%
Lung Lewis's carcinoma; Day 21
  TGS %, by tumor volume: 30%

## Cc1c(C)c2c(c(C)c1O)CCC(C)(C(=O)O)O2 (centres unmarked) [Trolox]
[3]
  Induction of apoptosis: induced apoptosis in RD cells but only at much higher concentrations
